Laboratory results from US20010020029A1, “New multidose vial formulations for administering endo-N-(9-methyl-9-azabicyclo[3.3.1]non-3-yl)-1-methyl-1H- indazole-3-carboxamide hydrochloride” (SmithKline Beecham p.l.c., priority 1998, published 2001).
Marks after values point to notes of the source that are not given here.

Key:
[1] = Stability of preservative systems to autoclave (placebo solutions, pH6, 121° C.); type: physicochemical; conditions: for Content after 15 mins (% of initial): autoclaved 15 minutes at 121° C.; for Content after 15 mins (% of initial) / Contents after 60 mins (% of initial): pH6; for Contents after 60 mins (% of initial): autoclaved 60 minutes at 121° C.; for Initial content: placebo solution pH6, before autoclaving; for stability to autoclaving (in words): up to 60 minutes at 121° C.; for Area percent for the unknown peak at 15 mins / Content at 15 mins (percentage of total peak area): autoclaved 15 mins; for Area percent for the unknown peak at 60 mins / Content at 60 mins (percentage of total peak area): autoclaved 60 mins; for Area percent for the unknown peak, initial / Initial content (percentage of total peak area): before autoclaving; for Content at 15 mins (percentage of total peak area) / Content at 60 mins (percentage of total peak area) / Initial content (percentage of total peak area): single paraben system, area normalisation
Procedure: The five preservative systems were assessed for stability to the autoclave process. Placebo solutions were prepared at pH6, filled into 2 ml glass vials and autoclaved for 15 and 60 minutes at 121° C. A cycle time of 60 minutes was selected to mimic the most extreme conditions to which a vial on the outside of a full autoclave load could be subjected to. Solutions were prepared at pH6 since this was the target pH of the multidose dose formulation. The early experiments were performed using 2 ml flint glass vials and West #1816 Teflon faced, bromobutyl rubber stopper.
External standards of the parabens could not be prepared due to their poor aqueous solubility. The results were therefore determined by are normalization, whereby peak areas are expressed as a percentage of the total peak area of the chromatograph.
NOTE: The results are expressed as percentage of total peak area determined by area normalisation.
Area percent for the unknown peak

[2] = test system: gram-positive and gram-negative bacteria, yeasts and molds; conditions: cited from earlier work; for efficacy against gram-positive and gram-negative bacteria, yeasts and molds: over the pH range 5-7
[3] = test system: bacteria, yeasts and molds; assay: USP test for preservative efficacy (overall); type: cell-based; conditions: 1% w/w, full vials, at the time of manufacture
Procedure: The target pH of the multidose vial is 6 and limits of 5 to 7. […] Efficacy of the preservative was therefore assessed over the lower pH range 4 to 6. Vials prepared at pH4, 5 and 6 were tested for preservative efficacy according to the USP XXII 1990—“Antimicrobial Preservative Effectiveness.”
For bacteria, the acceptance criteria require that the number of organisms per mL is reduced by a factor of not less than 10^3 in 14 days and there is no increase thereafter. All three batches met these criteria for P aeruginosa, S. aureus and E. coli.
All three batches met this criterion for C. albicans and A. niger.
In summary, vials prepared at pH4, 5 and 6 all pass the USP test for preservative efficacy.

[4] = Stability of meta-cresol formulation to autoclaving; type: physicochemical; conditions: autoclave cycle
Procedure: To investigate this phenomenon further, the stability during autoclaving experiment was repeated on samples of the meta-cresol formulation. The degradation product content increased from 0.05% before autoclaving to 0.53% at 15 minutes then 0.93% at 60 minutes. […] Meta-cresol was therefore rejected as a possible preservative.

Area percent for the unknown peak at 15 mins [1] | Area percent for the unknown peak at 60 mins [1] | Area percent for the unknown peak, initial [1] | Content at 15 mins (percentage of total peak area) [1] [%] | Content at 60 mins (percentage of total peak area) [1] [%] | Initial content (percentage of total peak area) [1] [%] | SMILES | Content after 15 mins (% of initial) [1] | Contents after 60 mins (% of initial) [1] | Initial content [1] [mg/mL] | stability to autoclaving (in words) [1] | efficacy as a function of pH ([2]; literature) | efficacy against gram-positive and gram-negative bacteria, yeasts and molds [2] | antimicrobial preservative efficacy [3] | compatibility with granisetron hydrochloride [4]
– | – | – | – | – | – | OCc1ccccc1 [Benzyl Alcohol, Benzyl alcohol] | 100 % of initial | 100 % of initial | 10.0 | good stability with no change in preservative content | decreases with increasing pH above pH5 | moderate efficacy | efficacious | –
– | – | – | – | – | – | Cc1cccc(O)c1 [Meta-Cresol, Meta-cresol] | 100 % of initial | 100 % of initial | 2.6 | good stability with no change in preservative content | – | good efficacy | – | incompatible
(3.7%)* | (6.5%)* | (0.2%)* | 96.3 | 93.5 | 99.8 | COC(=O)c1ccc(O)cc1 [Methyl-Parabens, Methyl paraben] | – | – | – | – | – | – | – | –
1.6% | 2.7% | 0.6% | 98.4 | 97.2 | 99.4 | CCCOC(=O)c1ccc(O)cc1 [Propyl Parabens, Propyl paraben] | – | – | – | – | – | – | – | –
